Measurements taken from patent publication US20120283321A1, “USE OF GAMBIEROL FOR TREATING AND/OR PREVENTING NEURODEGENERATIVE DISEASES RELATED TO TAU AND BETA-AMYLOID” (Universidade De Santiago De Compostela, priority 2009, published 2012).
“Also recorded” adds a separate entry of the source.

How the values were obtained:
[1] = test system: phosphorylated tau at residue Ser 202; assay: Western Blot of baseline phosphorylated tau at Ser 202 in control neurons from non-transgenic mice; format: cell-based
Method: (§1) In order to determine the effect of gambierol on the baseline phosphorylation of tau, Western Blot techniques were used. An in vitro cortical nueron model obtained from non-transgenic mice was used. The neuronal cultures and the processing of the samples were performed in the same manner as in the preceding example. The data obtained were corrected with the quantity of β-actin as a function of the protein content of the samples.

total tau = assay: Western Blot of baseline total tau (Tau46 antibody) in control neurons from non-transgenic mice; format: cell-based
Method: as §1

[2] = test system: extracellular β-amyloid peptide (β-amyloid 1-42 or β-amyloid 1-40); assay: ELISA of extracellular β-amyloid in culture medium of cortical neurons; format: cell-based, mice; settings: triple transgenic cultures treated with gambierol compared to those not treated
Method: The levels of extracellular β-amyloid in the culture medium of cortical neurons obtained from triple transgenic mice or from control mice treated with gambierol were determined by means of commercial ELISA kits for the detection of β-amyloid 1-42 or β-amyloid 1-40, following the manufacturer's recommended instructions (Covance). These kits are composed of plates treated with antibodies which capture the β-amyloid peptide at the amino-terminal end thereof. The standards with known quantities of β-amyloid, and the culture medium collected from the neuronal preparations with unknown quantities of β-amyloid, were added to the wells and incubated. The plates were washed in order to eliminate the unbound peptide and incubated for 2 hours in the presence of an antibody that binds to the carboxyl-terminal end of the β-amyloid peptide. Subsequently, the plates were washed and incubated with a peroxidase-conjugated secondary antibody. […] The optical density was measured by the absorbance at 495 nm, and a straight-line pattern was obtained (FIG. 4) with the quantities of β-amyloid added, wherefrom the quantity of β-amyloid in the culture medium collected from the neuronal preparations treated with the compounds of the present invention could be extrapolated (FIG. 5).

β-amyloid = assay: Western Blot of intracellular β-amyloid (6E10 antibody) in cortical neurons from triple transgenic mice; format: cell-based; settings: 10 μM gambierol between days 3 and 7 of culture; 3×Tg-AD neocortical cultures
Text: (§2) In order to perform the experiments of the present invention, one of the following were used: an in vitro cortical neuron model with simultaneous overexpression of tau and β-amyloid obtained from an Alzheimer's disease model in triple transgenic mice (3×Tg−AD or 3×Tg), obtainable by means of the process explained in international application WO2003/053136 and provided by the holders of said application, or an in vitro cortical neuron model obtained from non-transgenic mice (No Tg). […]
(§3) In order to determine the effect of the compound of the present invention on the expression of tau and β-amyloid, Western Blot techniques were used. […] For the Western Blot studies, the protein expression was evaluated using the primary antibodies anti-β-amyloid 6E10 at a 1:500 dilution, anti-Tau AT8 (phosphorylated Tau at Ser 202, 1:1000 dilution) and anti-Tau AT100 (phosphorylated Tau at Thr 212 and Ser 214, 1:1000 dilution). […]
(§4) For the Western Blot assays, the neuronal cultures treated with the compound of the present invention were washed with cold PBS and lysed in 50 mM Tris-HCl buffer (pH 7.4), which contains 150 mM NaCl, 1 mM EDTA, 1% Triton X-100, 2 mM DTT, 2.5 mM PMSF, 40 mg/ml aprotinin, 4 mg/ml leupeptin, 5 mM NaF, 1 mM Na3VO4, 1 mg/ml pepstatin A and 1 mg/ml benzamidine. The total protein concentration was determined by Bradford's method, using bovine albumin as the standard. […]

[3] = test system: phosphorylated Tau at Ser 202; assay: Western Blot of phosphorylated tau at Ser 202 (AT8 antibody) in cortical neurons from triple transgenic mice; format: cell-based; settings: 10 μM gambierol between days 3 and 7 of culture; 3×Tg cultures; p<0.05, n=3
Text: as §2, §3, §4

[4] = Cell viability, Alamar Blue fluorescence assay in primary cortical cultures; format: cell-based, mice; settings: mouse, primary cortical neuron cultures from mouse embryos, 72 hours in culture, mean ± standard error, three experiments, read-out: Viability of cortical neurons, % with respect to the control
Text: (§5) In order to perform the experiments of the present invention, one of the following were used: an in vitro cortical neuron model with simultaneous overexpression of tau and β-amyloid obtained from an Alzheimer's disease model in triple transgenic mice (3×Tg−AD or 3×Tg), obtainable by means of the process explained in international application WO2003/053136 and provided by the holders of said application, or an in vitro cortical neuron model obtained from non-transgenic mice (No Tg). The triple transgenic neuronal model presents simultaneous overexpression of the human transgenes for presenilin (PS1M146V), the β-amyloid precursor protein (APPSwe) and the tau protein (tauP301L), which leads to an Alzheimer's model with overexpression of β-amyloid and hyperphosphorylation of tau.
(§6) The primary cortical cultures were obtained from 3×Tg−AD mice embryos of 15-17 days of gestation and the wild cultures were obtained from control non-3×Tg−AD mice embryos of the same strain. The effect of the compound used in this invention on the cell viability was determined by means of a fluorescence assay using the Alamar Blue viability indicator. In order to perform the assay, primary cortical cultures seeded in 96-well plates were used. The neuronal cells were incubated with the compound of the present invention, which was dissolved in dimethyl sulfoxide (DMSO) and added to the culture medium at different concentrations, and the effect thereof on the neuronal viability was determined at different times of treatment in vitro. The maximum concentration of gambierol evaluated in vitro was 20 μM and the concentration of Alamar Blue was 10%. The reaction volume used was 200 μl. The fluorescence was measured at wavelengths of 530 nm (excitation) and 590 nm (emission).

cortical neurons = assay: as above; format: cell-based, mice; settings: up to a concentration of 20 μM
Text: as §5, §6

[5] = test system: phosphorylated Tau at Thr 212 and Ser 214; assay: Western Blot of phosphorylated tau at Thr 212 and Ser 214 (AT100 antibody) in cortical neurons from triple transgenic mice; format: cell-based; settings: 10 μM gambierol between days 3 and 7 of culture; 3×Tg cultures; p<0.05, n=3
Text: as §2, §3, §4

[6] = 10 μM gambierol, mean ± standard error, two experiments

C=CC/C=C\C=C/C1OC2CC3OC4CCC5OC6CC7(C)OC8(C)C(O)CC(CCCO)OC8CC7OC6CC5OC4(C)CC3(C)OC2C=CC1(C)O (stereo not drawn) [gambierol]
Baseline level of phosphorylated tau at residue Ser 202 in control neurons (in words) [1]: did not affect | Levels of phosphorylated tau at residue Ser 202 in control neurons, % with respect to the control [1, 6]: 107 ± 8.1% | Baseline quantity of total tau in control neurons (in words) (total tau): did not affect | Baseline levels of total tau in control neurons, % with respect to the control (total tau; [6]): 111 ± 3.9% | Levels of extracellular β-amyloid peptide secreted into the culture medium (in words) [2]: decrease | Overexpression of intracellular β-amyloid (6E10, Western Blot), in words (β-amyloid): significant decrease; also recorded: reduces | Phosphorylated tau at Ser 202 (AT8, Western Blot), in words [3]: significant decrease; also recorded: reduces | viability at 72 h, 0.25 μM ([4]; 0.25 μM gambierol): 103 ± 5.2% | viability at 72 h, 0.5 μM ([4]; 0.5 μM gambierol): 110 ± 1.4% | viability at 72 h, 1 μM ([4]; 1 μM gambierol): 105 ± 6.3% | viability at 72 h, 5 μM ([4]; 5 μM gambierol): 106 ± 4.7% | viability at 72 h, 10 μM ([4]; 10 μM gambierol): 105 ± 5.8% | viability at 72 h, 20 μM ([4]; 20 μM gambierol): 102 ± 3.8% | Effect on cell viability of cortical neuronal cultures (in words) (cortical neurons): does not cause a reduction in the viability; also recorded: did not modify the cell viability | Phosphorylated tau at Thr 212 and Ser 214 (AT100, Western Blot), in words [5]: significant decrease; also recorded: reduces
